Assay [1] has as its system iPS cells 201B7 strain. Nature of the assay: Cell number in mesodermal differentiation-induction after undifferentiated culture with β-NMN (Example 6). Format: cell-based, human. The note with it: β-NMN 0.25 or 1 mM in culture medium for iPS cells before mesodermal differentiation-induction; 7th day after seeding; versus no β-NMN. The protocol:
The effects of culturing in the presence of β-NMN before induction of differentiation on the mesodermal differentiation-induction of iPS cells was examined. As the iPS cells, the 201B7 strain was used. The iPS cells were cultured in a culture dish in the same manner as in Example 5, and when the confluent reached 70 to 80%, the iPS cells were detached from the culture dish and collected. The collected iPS cells were seeded at 1×10^5 cells/well in a 24-well plate coated with Matrigel (manufactured by Corning Incorporated) according to the manufacturer's protocol. The cells in the 24-well plate were cultured for 1 day in a culture medium prepared by removing β-NMN from the culture medium when culturing in the culture dish and adjusting to have a final concentration of Rock inhibitor of 10 μM. From the 1st day after seeding, the medium was replaced every day with a culture medium for mesodermal differentiation-induction of “STEMdiff Trilineage Differentiation kit” (manufactured by STEMCELL Technologies). The cells of the 7th day after seeding were sampled and the cell numbers were counted. […]

For assay [2], the system named is iPS cells 201B7 strain. Nature of the assay: Cell number in ectodermal differentiation-induction after undifferentiated culture with β-NMN (Example 7). Format: cell-based, human. The note with it: β-NMN 0.25 or 1 mM in culture medium for iPS cells before ectodermal differentiation-induction; 7th or 9th day after seeding; versus no β-NMN. The protocol:
The effects of culturing in the presence of β-NMN before induction of differentiation on the ectodermal differentiation-induction of iPS cells was examined. As the iPS cells, the 201B7 strain was used. The iPS cells were cultured in a culture dish in the same manner as in Example 5, and when the confluent reached 70 to 80%, the iPS cells were detached from the culture dish and collected. The collected iPS cells were seeded at 3×10^5 cells/well in a 24-well plate coated with Matrigel (manufactured by Corning Incorporated) according to the manufacturer's protocol. The cells in the 24-well plate were cultured for 1 day in a culture medium prepared by removing β-NMN from the culture medium when culturing in the culture dish and adjusting to have a final concentration of Rock inhibitor of 10 μM. From the 1st day after seeding, the medium was replaced every day with a culture medium for ectodermal differentiation-induction of “STEMdiff Trilineage Differentiation kit” (manufactured by STEMCELL Technologies). The cells of the 7th or 9th day after seeding were sampled and the cell numbers were counted. The time-dependent change in cell number of each sample is shown in FIG. 12(A), and the cell number of each sample on the 9th day after seeding is shown in FIG. 12(B). […]

In another assay the test system is iPS cells 253G1 strain. Put plainly: Flow cytometry of Sox17 after endodermal differentiation-induction following undifferentiated culture with β-NMN (Example 5). Format: cell-based. To be noted: β-NMN 0.25 or 1 mM during undifferentiated culture, then endodermal differentiation-induction; 5th or 7th day; versus absence of β-NMN. Here is the method: The effects of culturing in the presence of β-NMN before induction of differentiation on the endodermal differentiation-induction of iPS cells was examined. As the iPS cells, the 253G1 strain was used. iPS cells seeded on a culture dish coated with Matrigel (manufactured by Corning Incorporated) according to the manufacturer's protocol were cultured in a culture medium prepared by adjusting a culture medium for iPS cells to have a final concentration of β-NMN 0, 0.25 or 1 mM, and a final concentration of Rock inhibitor of 10 μM for 1 day. From the 1st day after seeding, the culture medium was replaced every day with a culture medium obtained by removing the Rock inhibitor from the culture medium at the time of seeding. When the confluent reached 70 to 80%, the iPS cells were detached from the culture dish and collected. The collected iPS cells were seeded at 3×10^5 cells/well in a 24-well plate coated with Matrigel (manufactured by Corning Incorporated) according to the manufacturer's protocol. […] After washing the stained cells, a flow cytometer “FACS caliber” (manufactured by Becton, Dickinson and Company) was used to analyze the fluorescence intensity of the anti-Sox17 antibody and the fluorescence intensity of the anti-FoxA2 antibody in each sample. […]
A general note: A flow cytometer gives signals particle by particle.

As to `NC(=O)c1ccc[n+]([C@@H]2O[C@H](COP(=O)([O-])O)[C@@H](O)[C@H]2O)c1` [β-NMN, β-nicotinamide mononucleotide], the “number of the cells” value with iPS cells 201B7 strain [1] and in the assay with iPS cells 201B7 strain [2] was “larger” each time. Also, the “ratio of Sox17-positive cells” value with iPS cells 253G1 strain is “higher”.
